The source made the active and inactive calls. No cut-off for these calls is given here.
Columns and labels:
[1] = tested on: Human immunodeficiency virus 1; experiment: Antiviral activity against HIV1; assay type: functional, organism-based
MT2 = experiment: Cytotoxicity against MT2 cells by XTT assay; assay type: functional, cell-based; conditions: Homo sapiens
[2] = Therapeutic index, ratio of IC50 for MT2 cells to EC50 for HIV1; assay type: cell-based; conditions: human, read-out: Ratio IC50/EC50

SMILES	EC50 [1]	IC50 (MT2)	selectivity ratio [2]	Activity [1]
C=C(C)[C@@H]1CC[C@]2(C(=O)O)CC[C@]3(C)[C@H](CC[C@@H]4[C@@]5(C)CC[C@H](OC(=O)[C@@H](C)CC(=O)O)C(C)(C)[C@@H]5CC[C@]43C)[C@@H]12	0.44 µM	> 43.8 µM	100	–
C=C(C)[C@@H]1CC[C@]2(C(=O)O)CC[C@]3(C)[C@H](CC[C@@H]4[C@@]5(C)CC[C@H](OC(=O)CC(C)(C)C(=O)O)C(C)(C)[C@@H]5CC[C@]43C)[C@@H]12 [BEVIRIMAT]	0.0013 µM	> 42.8 µM	30600	–
C=C(C)[C@@H]1CC[C@]2(C(=O)O)CC[C@]3(C)[C@H](CC[C@@H]4[C@@]5(C)CC[C@H](OC(=O)C[C@H](C)CO)C(C)(C)[C@@H]5CC[C@]43C)[C@@H]12	–	> 44.9 µM	–	inactive
Cc1cn([C@H]2C[C@H](N=[N+]=[N-])[C@@H](CO)O2)c(=O)[nH]c1=O [ZIDOVUDINE]	0.34 µM	1870 µM	–	–
C=C(C)[C@@H]1CC[C@]2(C(=O)O)CC[C@]3(C)[C@H](CC[C@@H]4[C@@]5(C)CC[C@H](OC(=O)C[C@@H](C)C(=O)O)C(C)(C)[C@@H]5CC[C@]43C)[C@@H]12	0.12 µM	> 43.8 µM	961	–
C=C(C)[C@@H]1CC[C@]2(C(=O)O)CC[C@]3(C)[C@H](CC[C@@H]4[C@@]5(C)CC[C@H](OC(=O)[C@H](C)CC(=O)O)C(C)(C)[C@@H]5CC[C@]43C)[C@@H]12	–	> 43.8 µM	–	inactive
C=C(C)[C@@H]1CC[C@]2(C(=O)O)CC[C@]3(C)[C@H](CC[C@@H]4[C@@]5(C)CC[C@H](OC(=O)C[C@H](C)C(=O)O)C(C)(C)[C@@H]5CC[C@]43C)[C@@H]12	0.0087 µM	32.8 µM	6270	–
C=C(C)[C@@H]1CC[C@]2(C(=O)O)CC[C@]3(C)[C@H](CC[C@@H]4[C@@]5(C)CC[C@H](OC(=O)CC(C)C(=O)O)C(C)(C)[C@@H]5CC[C@]43C)[C@@H]12 (stereo partly specified)	0.016 µM	> 44.9 µM	5320	–

Source: ChEMBL document CHEMBL1140562, “Anti-AIDS agents 73: structure-activity relationship study and asymmetric synthesis of 3-O-monomethylsuccinyl-betulinic acid derivatives” (Bioorg Med Chem Lett, 2007)
